Measured values published in patent US20240148707A1, “MODULATION OF DRUG-DRUG INTERACTIONS OF VADADUSTAT” (Akebia Therapeutics, Inc., priority 2021, published 2024).
Read-outs that look alike come from different tables or passages of the source.

How the values were obtained:
Type in all cases: in vivo, human
[1] = Phase I drug-drug interaction study with cyclosporine (Part 1, Arm 1)
Method: (§1) A phase I, open-label, 2-part study was conducted in healthy male and female subjects to evaluate the potential for interaction of cyclosporine (Part 1, Arm 1), probenecid (Part 1, Arm 2), and rifampin (Part 2) with vadadustat.
Subjects were randomized in a 1:1 ratio to 1 of 2 dosing sequences (A:B or B:A) to receive vadadustat 300 mg alone and vadadustat 300 mg in combination with oral cyclosporine 500 mg in a crossover design. Study drugs were administered in the morning after at least a 10-hour overnight fast. Subjects remained fasted for at least 4 hours post-dose. • Treatment A: a single oral dose of vadadustat (300 mg) administered as 2×150 mg tablets. • Treatment B: a single oral dose of vadadustat (300 mg) administered as 2×150 mg tablets co-administered with a single oral dose of cyclosporine (500 mg) administered as 5×100 mg capsules.
On the morning of Day 1, subjects received the first treatment (A or B). Following a 7-day washout, subjects crossed over to Period 2 to receive the second treatment of the dosing sequence (A or B) on Day 8.
On each dosing day (Day 1 and Day 8) blood samples for PK analysis were collected up to 48 hours post-dose. Subjects were discharged from the clinical research unit (CRU) on the morning of Day 10, after the final 48-hour post-dose PK sample had been collected. A follow-up phone call was conducted 30 days±2 days after the final dose.

[2] = [14C]-labeled Compound 1 metabolism and excretion study in healthy adult males; settings: healthy adult male (6), single oral 650 mg [14C]-labeled Compound 1
Text: The urinary excretion rate of this drug and acyl glucuronide is less than 1% of the total radioactivity.

[3] = Phase I drug-drug interaction study with probenecid (Part 1, Arm 2); settings: for increase in exposure (AUC): administered with multiple doses of probenecid vs vadadustat alone
Method: as §1
On the morning of Day 1, subjects received a single oral dose of vadadustat (300 mg) as 2×150 mg tablets after at least a 10-hour overnight fast and remained fasted for at least 4 hours post-dose. Following a 2-day washout (Days 1 to 2), subjects received 1 oral probenecid 500 mg tablet Q12 h for 4 days (Days 3 to 6). On days that probenecid was administered alone (Days 3, 4, and 6), probenecid was administered in a fasted state 1 hour prior to a standard breakfast and 1 hour prior to an evening meal or snack. On Day 5, probenecid was co-administered with a single dose of vadadustat (300 mg as 2×150 mg tablets) following at least a 10-hour fast. Subjects remained fasted for at least 4 hours after dosing.
On days vadadustat was administered (Day 1 and Day 5), blood samples for PK analysis were collected up to 48 hours postdose. In addition, on vadadustat dosing days, pooled urine samples were collected up to 24 hours post-dose. Subjects were discharged from the CRU on the morning of Day 7, after the final 48-hour post-dose PK sample had been collected. A follow-up phone call was conducted 30 days±2 days after the final dose.

[4] = Phase 1 drug-drug interaction study, vadadustat as perpetrator with adefovir (Arm 2); settings: for AUC(0-inf) / AUC(0-t) / Cmax: both sexes, human, plasma
Method: A Phase 1, open-label, fixed sequence study was conducted in healthy male and female subjects to evaluate vadadustat as a perpetrator of DDIs with digoxin and/or adefovir.
On the morning of Day 1, subjects received a single oral dose of adefovir 10 mg after at least a 10-hour overnight fast. Subjects remained fasted for at least 4 hours after dosing. Following a 3-day washout period, subjects received vadadustat 600 mg QD beginning on Day 4 for 5 days (Days 4-8). When administered alone, vadadustat was administered in the morning at least 30 minutes prior to breakfast. On Day 7 subjects received their morning dose of vadadustat 600 mg along with a single oral dose of adefovir 10 mg after at least a 10-hour overnight fast.

[5] = Phase 1 drug-drug interaction study, vadadustat as perpetrator with digoxin (Arm 1)
Method: A Phase 1, open-label, fixed sequence study was conducted in healthy male and female subjects to evaluate vadadustat as a perpetrator of DDIs with digoxin and/or adefovir. […] Subjects remained fasted for at least 4 hours after dosing. Following a 12-day washout period, subjects received vadadustat 600 mg QD beginning on Day 13 for 7 days (Days 13-19).

[6] = vadadustat 300 mg + cyclosporine 500 mg, single oral doses, fasted
[7] = vadadustat 300 mg alone, single oral dose, fasted
[8] = vadadustat 300 mg with vs without cyclosporine 500 mg
[9] = vadadustat 300 mg single dose + probenecid 500 mg Q12h (multiple doses), fasted
[10] = vadadustat 300 mg with vs without probenecid 500 mg Q12h
[11] = adefovir 10 mg with vs without vadadustat 600 mg QD
[12] = digoxin 0.5 mg single dose with vadadustat 600 mg QD (Day 16)
[13] = digoxin 0.5 mg with vs without vadadustat 600 mg QD

O=C(O)CNC(=O)c1ncc(-c2cccc(Cl)c2)cc1O[C@@H]1O[C@H](C(=O)O)[C@@H](O)[C@H](O)[C@H]1O [Vadadustat-O-Glucuronide]
AUCinf, geometric LSM, Treatment V + C [1, 6]: 39210 ng·h/mL | AUClast, geometric LSM, Treatment V + C [1, 6]: 38130 ng·h/mL | Cmax, geometric LSM, Treatment V + C [1, 6]: 3900 ng/mL | AUCinf, geometric LSM, Treatment V [1, 7]: 34480 ng·h/mL | AUClast, geometric LSM, Treatment V [1, 7]: 33430 ng·h/mL | Cmax, geometric LSM, Treatment V [1, 7]: 4500 ng/mL | AUCinf, Ratio (V + C)/V [1, 8]: 113.74% | AUClast, Ratio (V + C)/V [1, 8]: 114.04% | Cmax, Ratio (V + C)/V [1, 8]: 86.63% | changes in the Cmax and AUC values ([1]; vadadustat in combination with cyclosporine): no clinically relevant changes | share of the total radioactivity (AUC0-∞) in plasma [2]: about 15% | increase in exposure (AUC) ([3]; listed as vadadustat-O-glucuronide): about 2 fold | increase in exposure (AUC) ([3]; listed as vadadustat-Oglucuronide): ~2 fold | change of Cmax values ([3]; in combination with probenecid): relatively unchanged | urinary excretion ([3]; in combination with probenecid): decreased | AUCinf, geometric LSM, Treatment V [3, 7]: 38240 ng·h/mL | AUClast, geometric LSM, Treatment V [3, 7]: 37410 ng·h/mL | Cmax, geometric LSM, Treatment V [3, 7]: 5590 ng/mL | AUCinf, geometric LSM, Treatment V + P [3, 9]: 86580 ng·h/mL | AUClast, geometric LSM, Treatment V + P [3, 9]: 83810 ng·h/mL | Cmax, geometric LSM, Treatment V + P [3, 9]: 6170 ng/mL | AUCinf, Ratio (V + P)/V [3, 10]: 226.39% | AUClast, Ratio (V + P)/V [3, 10]: 224.05% | Cmax, Ratio (V + P)/V [3, 10]: 110.38%

Nc1ncnc2c1ncn2CCOCP(=O)(O)O [adefovir]
AUCinf, Ratio (V + A)/A [4, 11]: 114.70% | AUClast, Ratio (V + A)/A [4, 11]: 114.74% | Cmax, Ratio (V + A)/A [4, 11]: 95.15% | systemic exposure to adefovir ([4]; adefovir administered with vadadustat vs adefovir alone): relatively unchanged | AUC(0-inf) ([4]; oral, adefovir 10 mg single dose with vadadustat 600 mg QD (Day 7), read-out: AUCinf, geometric LSM, Treatment V + A): 230 ng·h/mL | AUC(0-t) ([4]; oral, adefovir 10 mg single dose with vadadustat 600 mg QD (Day 7), read-out: AUClast, geometric LSM, Treatment V + A): 227 ng·h/mL | Cmax ([4]; oral, adefovir 10 mg single dose with vadadustat 600 mg QD (Day 7), read-out: Cmax, geometric LSM, Treatment V + A): 17.1 ng/mL | AUC(0-inf) ([4]; adefovir 10 mg alone, single oral dose, fasted, read-out: AUCinf, geometric LSM, Treatment A): 201 ng·h/mL | AUC(0-t) ([4]; adefovir 10 mg alone, single oral dose, fasted, read-out: AUClast, geometric LSM, Treatment A): 198 ng·h/mL | Cmax ([4]; adefovir 10 mg alone, single oral dose, fasted, read-out: Cmax, geometric LSM, Treatment A): 17.9 ng/mL

C[C@H]1O[C@@H](O[C@H]2[C@@H](O)C[C@H](O[C@H]3[C@@H](O)C[C@H](O[C@H]4CC[C@@]5(C)[C@H](CC[C@@H]6[C@@H]5C[C@@H](O)[C@]5(C)[C@@H](C7=CC(=O)OC7)CC[C@]65O)C4)O[C@@H]3C)O[C@@H]2C)C[C@H](O)[C@@H]1O [digoxin]
AUC(0-t) ([5]; both sexes, human, plasma, oral, digoxin 0.5 mg single dose with vadadustat 600 mg QD (Day 16), read-out: AUClast, geometric LSM, Treatment V + D): 31.7 ng·h/mL | AUC(0-inf) ([5]; both sexes, human, plasma, digoxin 0.5 mg alone, single oral dose, fasted, read-out: AUCinf, geometric LSM, Treatment D): 36.3 ng·h/mL | AUC(0-t) ([5]; both sexes, human, plasma, digoxin 0.5 mg alone, single oral dose, fasted, read-out: AUClast, geometric LSM, Treatment D): 34.6 ng·h/mL | Cmax, geometric LSM, Treatment D ([5]; digoxin 0.5 mg alone, single oral dose, fasted): 2.46 ng/mL | AUCinf, geometric LSM, Treatment V + D [5, 12]: 33.19 ng·h/mL | Cmax, geometric LSM, Treatment V + D [5, 12]: 1.64 ng/mL | AUCinf, Ratio (V + D)/D [5, 13]: 91.37% | AUClast, Ratio (V + D)/D [5, 13]: 91.49% | Cmax, Ratio (V + D)/D [5, 13]: 66.92% | decrease of digoxin Cmax ([5]; digoxin and vadadustat coadministered vs digoxin alone): ~35% | total exposure (AUClast and AUCinf) to digoxin ([5]; digoxin following multiple doses of vadadustat vs digoxin alone): unchanged
